Measured values as given in patent US6664231B1, “Anti-fungal peptides” (priority 1993, dated 2003).
Square brackets hold non-standard residues; d marks the D form. Peptide text beside a SMILES is read from it. Phe(4-NH2) = Nc1ccc(C[C@H](N)C(=O)O)cc1; Dab = NCC[C@H](N)C(=O)O

Test system: C. albicans (CA-1, Strain SLU-1)
Experiment: Radial diffusion assay
Assay type: cell-based, Candida albicans
Conditions: pmoles of peptide added to well to achieve a 30 mm^2 zone, PROBIT analysis; crude or purified (P′) peptide
In short: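 Yeast at 1×10^6 CFU/mL in agarose underlayer (3% Sabouraud, 10 mM sodium phosphate pH 7.4); 2-fold peptide dilutions in D-PBS from ~1 mg/mL loaded into wells, 3 h at 37° C, then nutrient overlayer overnight. Value: pmol/well giving 30 mm^2 net clear zone, by PROBIT regression.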

| Molecule | C. albicans pmol/30 mm^2 zone |
| --- | --- |
| CC[C@H](C)[C@H](NC(=O)[C@H](CC(C)C)NC(=O)[C@@H](N)Cc1c[nH]c2ccccc12)C(=O)N[C@@H](CCC(N)=O)C(=O)N[C@@H](CC(C)C)C(=O)N[C@@H](Cc1ccccc1)C(=O)N[C@@H](Cc1c[nH]cn1)C(=O)N[C@@H](CCCCN)C(=O)N[C@@H](CCCCN)C(N)=O [XMP.298] | 2,628 pmol/30 mm^2 zone |
| CC[C@H](C)[C@H](NC(=O)[C@H](CC(C)C)NC(=O)[C@@H](N)Cc1c[nH]c2ccccc12)C(=O)N[C@@H](CCC(N)=O)C(=O)N[C@@H](CC(C)C)C(=O)N[C@@H](Cc1ccccc1)C(=O)N[C@@H](Cc1c[nH]cn1)C(=O)N[C@@H](CCCCN)C(N)=O [XMP.303] | >4,694 pmol/30 mm^2 zone |
| CC[C@H](C)[C@H](NC(=O)[C@H](CC(C)C)NC(=O)[C@H](Cc1c[nH]c2ccccc12)NC(=O)[C@@H](N)CCCCN)C(=O)N[C@@H](CCC(N)=O)C(=O)N[C@@H](CC(C)C)C(=O)N[C@@H](CCCCN)C(N)=O [XMP.323] | >4,627 pmol/30 mm^2 zone |
| CC[C@H](C)[C@H](NC(=O)[C@H](CC(C)C)NC(=O)[C@H](Cc1c[nH]c2ccccc12)NC(=O)[C@@H](N)CCCCN)C(=O)N[C@@H](CCC(N)=O)C(=O)N[C@@H](CC(C)C)C(=O)N[C@@H](CCCCN)C(=O)N[C@@H](CCCCN)C(N)=O [XMP.324] | 894 pmol/30 mm^2 zone |
| CC[C@H](C)[C@H](NC(=O)[C@H](CC(C)C)NC(=O)[C@H](Cc1c[nH]c2ccccc12)NC(=O)[C@H](CCCCN)NC(=O)[C@@H](N)CCCCN)C(=O)N[C@@H](CCC(N)=O)C(=O)N[C@@H](CC(C)C)C(=O)N[C@@H](CCCCN)C(N)=O [XMP.326] | 2,182 pmol/30 mm^2 zone |
| CC[C@H](C)[C@H](NC(=O)[C@H](CC(C)C)NC(=O)[C@H](Cc1c[nH]c2ccccc12)NC(=O)[C@H](CCN)NC(=O)[C@@H](N)CCN)C(=O)N[C@@H](CCC(N)=O)C(=O)N[C@@H](CC(C)C)C(=O)N[C@@H](CCN)C(=O)N[C@@H](CCN)C(N)=O [XMP.339] (H-[Dab][Dab]WLIQL[Dab][Dab]-NH2) | 2,878 pmol/30 mm^2 zone |
| CC[C@H](C)[C@H](NC(=O)[C@H](CC(C)C)NC(=O)[C@H](Cc1c[nH]c2ccccc12)NC(=O)[C@H](Cc1ccc(N)cc1)NC(=O)[C@@H](N)Cc1ccc(N)cc1)C(=O)N[C@@H](CCC(N)=O)C(=O)N[C@@H](CC(C)C)C(=O)N[C@@H](Cc1ccc(N)cc1)C(=O)N[C@@H](Cc1ccc(N)cc1)C(N)=O [XMP.340] (H-[Phe(4-NH2)][Phe(4-NH2)]WLIQL[Phe(4-NH2)][Phe(4-NH2)]-NH2) | b (No detectable activity up to 5 μg/well) |
| CC[C@H](C)[C@H](NC(=O)[C@H](CC(C)C)NC(=O)[C@H](Cc1ccc(N)cc1)NC(=O)[C@H](CCCCN)NC(=O)[C@@H](N)CCCCN)C(=O)N[C@@H](CCC(N)=O)C(=O)N[C@@H](CC(C)C)C(=O)N[C@@H](CCCCN)C(=O)N[C@@H](CCCCN)C(N)=O [XMP.346] (H-KK[Phe(4-NH2)]LIQLKK-NH2) | 640 pmol/30 mm^2 zone |
| Ac-PWLIQLFHKK-OH [XMP.354] | 6,361 pmol/30 mm^2 zone |
| H-ASKVGWLIQLFHKK-NH2 [XMP.31] | 426 pmol/30 mm^2 zone |
| H-GWLIQLFHKKIESALRNKMNS-NH2 [XMP.55] | >2666 pmol/30 mm^2 zone |
| H-IQLFHK-NH2 [XMP.318] | b (No detectable activity up to 5 μg/well) |
| H-IQLFHKK-NH2 [XMP.311] | b (No detectable activity up to 5 μg/well) |
| H-KAKVGWLIQLFHKK-NH2 [XMP.32] | 294 pmol/30 mm^2 zone |
| H-KKKWLIQLKKK-NH2 [XMP.350] | 129 pmol/30 mm^2 zone |
| H-KKWLIQL-NH2 [XMP.325] | 4,135 pmol/30 mm^2 zone |
| H-KSAVGWLIQLFHKK-NH2 [XMP.33] | 603 pmol/30 mm^2 zone |
| H-KSKAGWLIQLFHKK-NH2 [XMP.34] | 319 pmol/30 mm^2 zone |

Same assay, conditions: pmoles of peptide added to well to achieve a 30 mm^2 zone, PROBIT analysis; crude or purified (P′) peptide; listed as XMP.298P′

| Molecule | C. albicans pmol/30 mm^2 zone |
| --- | --- |
| CC[C@H](C)[C@H](NC(=O)[C@H](CC(C)C)NC(=O)[C@@H](N)Cc1c[nH]c2ccccc12)C(=O)N[C@@H](CCC(N)=O)C(=O)N[C@@H](CC(C)C)C(=O)N[C@@H](Cc1ccccc1)C(=O)N[C@@H](Cc1c[nH]cn1)C(=O)N[C@@H](CCCCN)C(=O)N[C@@H](CCCCN)C(N)=O [XMP.298] | 1,106 pmol/30 mm^2 zone |

Same assay, conditions: pmoles of peptide added to well to achieve a 30 mm^2 zone, PROBIT analysis; crude or purified (P′) peptide; listed as XMP.303P′

| Molecule | C. albicans pmol/30 mm^2 zone |
| --- | --- |
| CC[C@H](C)[C@H](NC(=O)[C@H](CC(C)C)NC(=O)[C@@H](N)Cc1c[nH]c2ccccc12)C(=O)N[C@@H](CCC(N)=O)C(=O)N[C@@H](CC(C)C)C(=O)N[C@@H](Cc1ccccc1)C(=O)N[C@@H](Cc1c[nH]cn1)C(=O)N[C@@H](CCCCN)C(N)=O [XMP.303] | 1,307 pmol/30 mm^2 zone |

Same assay, conditions: pmoles of peptide added to well to achieve a 30 mm^2 zone, PROBIT analysis; crude or purified (P′) peptide; listed as XMP.339P′

| Molecule | C. albicans pmol/30 mm^2 zone |
| --- | --- |
| CC[C@H](C)[C@H](NC(=O)[C@H](CC(C)C)NC(=O)[C@H](Cc1c[nH]c2ccccc12)NC(=O)[C@H](CCN)NC(=O)[C@@H](N)CCN)C(=O)N[C@@H](CCC(N)=O)C(=O)N[C@@H](CC(C)C)C(=O)N[C@@H](CCN)C(=O)N[C@@H](CCN)C(N)=O [XMP.339] (H-[Dab][Dab]WLIQL[Dab][Dab]-NH2) | 2,599 pmol/30 mm^2 zone |
